Assay results as given in patent US7947280B2 (priority 2003, dated 2011).

Key:
ApoE-KO mice [1] = assay: AngII induced abdominal aortic aneurysm formation model; assay type: in vivo, mouse
Experimental: (§1) Animals. Mice were maintained in temperature-controlled (20° C. to 22° C.) environment with a 12-hour light-dark cycle. Sterile water and standard chow diet were available ad libitum. All mice were C57BL/6J ApoE-KO male mice (Jackson Laboratories, Bar Harbor, […].) between the ages of 8-12 weeks. […] Animal procedures were carried out in accordance with the Institutional Review Board Guidelines at Stanford University.
Abdominal aortic aneurysm formation, sudden death and vein graft procedure. […] Abdominal aortic aneurysm was defined as ≧50% enlargement of the maximal abdominal aorta diameter. Mice that were found dead without any preceding signs of suffering were defined as sudden death.

[2] = system: AT1R and APJ heterodimerization; assay: AT1R-APJ receptor heterodimerization by immunoprecipitation; assay type: cell-based; details: addition of apelin
Experimental: Cells were immediately lysed.
Immunoprecipitation and Western Blotting Immunoprecipitation was performed as previously described (REF). In brief, cells were lysed using 10× Cell Lysis Buffer (Cell Signaling Technologies CITY). Lysates were precleared with protein G and immunoprecipitation was performed with the respective antibodies at concentration of 1 mg/mL for 24 hrs at 4C. Protein G agarose was added and incubated for additional 2 hours. Western blotting on SDS-PAGE gels were performed as previously described, and the bands were visualized using the enhanced chemiluminescence system (Amersham Biosciences).

isolated rat heart = details: Szokodi et al; cited from earlier work
ApoE-KO mice [3] = assay: Atherosclerotic lesion analysis in ApoE-KO mice; assay type: in vivo, mouse; details: for reduction of total lesion burden: co-infusion of Apelin 2 mg/kg/day with AngII 1.4 mg/kg/day
Experimental: as §1, with “Sterile water and standard chow diet were available ad libitum.” left out
Tissue preparation, histology and lesion quantification. Mice were euthanized 28 days following implantation of osmotic mini-pumps. The thoracic cage was removed and the animal perfused with phosphate buffered saline solution (PBS) for 2 minutes. The entire aorta and vein graft were exposed and the periadventitial tissue and scar tissue dissected and removed. Subsequently mice were perfusion fixed in situ with 4% phosphate-buffered paraformaldehyde. In some animals aorta and lung were removed fresh for biochemical assays.
Atherosclerotic Lesion Analysis Atherosclerosis lesion area was determined as described previously. Briefly, the arterial tree was perfused with PBS (pH 7.3) and then perfusion fixed with phosphate-buffered paraformaldehyde (3%, pH 7.3). The heart and full length of the aorta-to-iliac bifurcation was exposed and dissected carefully from any surrounding tissues. Aortas were then opened along the ventral midline and dissected free of the animal and pinned out flat, intimal side up, onto black wax. Aortic images were captured with a digital camera (DMC1) mounted on a Leica MZ6 stereomicroscope and analyzed using Fovea Pro (Reindeer Graphics, Asheville, N.C.). Percent lesion area was calculated as total lesion area divided by total surface area.

eNOS protein = details: experimental groups incl. apelin treated animals
Experimental: Immunoblotting. Lung homogenate (n≧3 per group) were homogenized on ice for 20 seconds in lysis buffer (50 mmol/L Tris, pH 7.5, 150 mmol/L NaCl, 0.1% SDS, 0.5% deoxycholate, 1% Nonidet P-40) containing protease inhibitors (Complete; Boehringer Mannheim) and 1 mmol/L phenylmethylsulfonyl fluoride. Protein lysates (8 μg) were resolved using SDS-PAGE and transferred to polyvinylidene difluoride membranes. Membranes were incubated with a 1:2000 dilution of mouse anti-eNOS monoclonal antibody (Cell Signaling, Location), followed by a 1:2500 dilution of rabbit anti-mouse horseradish peroxidase-conjugated secondary antibody (Promega). Protein bands were visualized by chemiluminescence.

[4] = system: Erk1/2 phosphorylation in RASM; details: AngII stimulated RASM
[5] = system: isolated human saphenous vein; details: Katugampola et al.; cited from earlier work
C57B/16 mice = assay: Magnetic resonance imaging after intraperitoneal apelin-12 injection; assay type: in vivo, mouse; details: post apelin-12 300 μg/kg intraperitoneal, one hour prior to scanning; n=9
Experimental: Magnetic resonance imaging. […] Platinum needle ECG leads were inserted subcutaneously. Respiration was monitored by means of a pneumatic pillow sensor positioned against the abdomen. Mouse body temperature was maintained during scanning at 37° C. by a flow of heated air thermostatically controlled by a rectal temperature probe. Magnetic resonance images were acquired on a 4.7T Oxford magnet controlled by a Varian Inova console (Varian, Palo Alto, Calif.) using a transmit-receive, quadrature, volume coil with an inner diameter of 3.5 cm. Image acquisition was gated to respiration and to the ECG R wave (SA Instruments, Stony Brook, N.Y.). Coronal and sagittal scout images led to the acquisition of multiple contiguous 1 mm thick, short axis slices orthogonal to the interventricular septum. […] Planimetry measurements of end diastolic and end systolic dimension were derived offline from short axis views of the left ventricle at the level of the papillary muscles using ImageJ software (National Institutes of Health, Bethesda, Md.). Ejection fraction was calculated as [[…]. Data Analysis. […] Exact p values are reported for all comparisons.

[6] = system: mice with experimentally induced heart failure; details: Pyr-apelin-13 2 mg/kg/day; between weeks 1 and 3; n=6
Experimental: Left anterior decending artery ligation. Animals were anesthetized with 2-3% inhalational isofluorane and 50 mg/kg sodium pentobarbital intraperitoneally. […] The animals were placed in the left lateral decubitus position and a thoracotomy performed at the 4th intercostal space. Peak inspiratory pressures were monitored and maintained between 10-14 cm of water. The lung was retracted and the pericardium incised. The left coronary artery was ligated with a 7-0 prolene suture until blanching of the distal left ventricle was noted. Heart rate and temperature were monitored during the procedure. After ascertaining complete hemostasis, the chest wall was closed in four layers. The animals were weaned from the ventilator and anesthetic and then extubated and monitored in the recovery area.
Treadmill exercise. […] In mice, a commonly used commercially available setup (Columbus Instruments) employs a moving belt encased in a sealed Plexiglas enclosure, allowing for measurement of oxygen consumption and carbon dioxide production. Stimulus devices consist of a metal shock grid. Metabolic measurements are performed using an open circuit volumetric gas analysis system (Oxymax System; Columbus Instruments). The low dead space of this circuit allows quick gas equilibration with a t1/2 of 30 s, which is highly suitable for use during graded exercise protocols. […]

apelin
animals with aneurysm formation (ApoE-KO mice [1]; AngII plus apelin treatment): 1/12
incidence of AAA formation (ApoE-KO mice [1]; apelin added to AngII infused mice): 8%
incidence of AAA formation within 4 weeks (ApoE-KO mice [1]; single agent infusion): did not observe AAA formation
AngII induced receptor heterodimerization [2]: did not affect
EC50, contractility of the isolated rat heart (isolated rat heart): low picomolar range
reduction in aortic root atherosclerotic burden vs saline treated controls (trend) (ApoE-KO mice [3]; apelin 2 mg/kg/day, 4 weeks): 25%
reduction of total lesion burden (ApoE-KO mice [3]; 4 weeks): mitigated
reduction of total lesion burden (ApoE-KO mice [3]; 4 weeks, listed as Apelin): 75%
progression of atherosclerosis in aortic root (FIG. 17) (ApoE-KO mice [3]; osmotic minipump during high fat diet exposure): do not alter
eNOS protein levels in aortas (eNOS protein): no difference
Erk1/2 phosphorylation [4]: decreased
effect on isolated human saphenous vein [5]: potently contracts
Ejection fraction (C57B/16 mice): 67.7±1.6%
heart rate (inverse of R-R interval of electrocardiogram) (C57B/16 mice): 559±19 beats per minute
left ventricular end diastolic area (C57B/16 mice): 0.104±0.005 cm2
average time to exhaustion / exercise capacity [6]: marked, statistically significant increase
